From patent US8415469B2, “Compounds and methods for kinase modulation, and indications therefor” (Plexxikon Inc., priority 2005, dated 2013)

What was measured:
Assay type in all cases: biochemical
[1] = molecular target: T1, Kit (Homo sapiens, UniProt P10721); experiment: AlphaScreen kinase assay, Kit; details: read-out: IC50, activity toward kinase Kit
T1 construct: P1332.N6 BI PTP KIT M552-K948-X COD; His6 (N); made in house; host or cells: E. coli (PTP1B co-expressed)

[2] = molecular target: T2, Kdr (Homo sapiens, UniProt P35968); experiment: Z'-Lyte FRET kinase assay (Invitrogen), Kdr; details: read-out: IC50, activity toward kinase Kdr
T2 construct: purchased Invitrogen (assay run by Invitrogen)

[3] = molecular target: T3, Flt4 (Homo sapiens, UniProt P35916); experiment: AlphaScreen kinase assay, Flt4; details: read-out: IC50, activity toward kinase Flt4
T3 construct: purchased ProQinase GmbH (Freiburg, Germany)
T3 sequence (P35916 25-1363): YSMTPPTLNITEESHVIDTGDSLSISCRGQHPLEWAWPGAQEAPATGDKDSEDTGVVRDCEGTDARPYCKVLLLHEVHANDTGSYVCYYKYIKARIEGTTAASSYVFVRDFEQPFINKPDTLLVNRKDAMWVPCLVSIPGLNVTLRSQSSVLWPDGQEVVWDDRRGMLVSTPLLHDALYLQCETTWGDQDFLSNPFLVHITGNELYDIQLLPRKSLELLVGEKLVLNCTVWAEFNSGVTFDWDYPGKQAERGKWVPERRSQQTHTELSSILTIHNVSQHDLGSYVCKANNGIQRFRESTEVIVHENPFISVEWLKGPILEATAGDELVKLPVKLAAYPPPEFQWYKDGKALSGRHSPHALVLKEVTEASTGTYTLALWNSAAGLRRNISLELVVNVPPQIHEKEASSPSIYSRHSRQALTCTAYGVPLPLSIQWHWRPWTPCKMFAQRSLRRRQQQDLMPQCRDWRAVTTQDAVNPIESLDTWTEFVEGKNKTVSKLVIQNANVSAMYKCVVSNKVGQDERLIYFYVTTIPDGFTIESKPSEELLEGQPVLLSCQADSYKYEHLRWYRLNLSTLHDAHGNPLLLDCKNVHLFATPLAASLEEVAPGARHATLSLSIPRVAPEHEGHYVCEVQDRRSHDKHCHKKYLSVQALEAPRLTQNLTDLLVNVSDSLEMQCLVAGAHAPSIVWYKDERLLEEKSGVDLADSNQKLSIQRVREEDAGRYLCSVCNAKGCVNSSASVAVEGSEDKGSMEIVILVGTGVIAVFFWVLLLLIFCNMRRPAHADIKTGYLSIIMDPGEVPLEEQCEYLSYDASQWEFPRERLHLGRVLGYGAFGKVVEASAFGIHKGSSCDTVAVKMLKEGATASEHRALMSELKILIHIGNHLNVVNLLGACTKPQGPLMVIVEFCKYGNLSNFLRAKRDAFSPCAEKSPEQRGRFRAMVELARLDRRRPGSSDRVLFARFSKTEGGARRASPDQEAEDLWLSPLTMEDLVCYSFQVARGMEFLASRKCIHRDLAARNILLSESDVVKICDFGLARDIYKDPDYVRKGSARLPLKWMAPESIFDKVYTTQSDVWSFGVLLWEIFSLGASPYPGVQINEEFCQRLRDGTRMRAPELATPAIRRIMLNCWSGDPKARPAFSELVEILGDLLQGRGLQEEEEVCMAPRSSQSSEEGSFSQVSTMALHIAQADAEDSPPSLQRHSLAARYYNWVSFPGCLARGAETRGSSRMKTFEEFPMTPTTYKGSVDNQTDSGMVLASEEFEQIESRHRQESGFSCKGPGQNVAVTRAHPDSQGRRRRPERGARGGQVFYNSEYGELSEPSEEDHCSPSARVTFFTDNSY
Excerpt: AlphaScreen assay was used to screen additional kinases. The assay is similarly dependent on the phosphorylation of a peptide substrate. In this assay, an antibody that recognizes phosphorylated substrate is bound to an acceptor bead. The peptide substrate is attached to biotin, which binds to a donor head that contains streptavidin. Thus phosphorylated substrate is bound by antibody and streptavidin, bringing the donor and acceptor heads into close proximity when kinase is not inhibited. The donor produces singlet oxygen which results in emission from the acceptor when they are in close proximity. Conversely, when kinase is inhibited, the donor and acceptor beads are not associated and the emission from the acceptor is reduced.
AlphaScreen assays were done using compounds dissolved in DMSO to a concentration of 20 mM. The compounds were diluted accordingly to the desired final concentrations in each sample well, using 1:3 serial dilution for a total of 8 concentration points.

[4] = molecular target: T4, Jnk3 (Homo sapiens, UniProt P53779); experiment: AlphaScreen kinase assay, Jnk3; details: read-out: IC50, activity toward kinase Jnk3
T4 construct: purchased Upstate Biotechnology
T4 sequence (P53779 whole entry): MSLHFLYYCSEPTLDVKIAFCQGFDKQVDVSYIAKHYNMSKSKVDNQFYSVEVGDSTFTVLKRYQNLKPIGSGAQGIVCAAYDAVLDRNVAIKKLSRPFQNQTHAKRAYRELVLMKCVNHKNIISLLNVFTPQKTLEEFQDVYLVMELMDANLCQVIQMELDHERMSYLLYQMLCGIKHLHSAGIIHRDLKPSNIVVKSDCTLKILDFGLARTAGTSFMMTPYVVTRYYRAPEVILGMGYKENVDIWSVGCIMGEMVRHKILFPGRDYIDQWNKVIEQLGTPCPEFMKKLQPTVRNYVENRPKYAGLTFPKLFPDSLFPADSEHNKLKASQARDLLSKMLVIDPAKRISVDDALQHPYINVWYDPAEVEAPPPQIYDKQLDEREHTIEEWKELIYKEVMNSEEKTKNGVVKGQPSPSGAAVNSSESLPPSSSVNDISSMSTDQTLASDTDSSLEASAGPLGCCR
Method: AlphaScreen assays were done using compounds dissolved in DMSO to a concentration of 20 mM. The compounds were diluted accordingly to the desired final concentrations in each sample well, using 1:3 serial dilution for a total of 8 concentration points. Plates were prepared such that each kinase reaction is 20 μl in 1× kinase buffer, 5% DMSO and 10 μM ATP. After incubation of the kinase reaction for 1 hour at room temperature, 5 μl of donor beads in stop buffer (50 mM EDTA in 1× kinase buffer) was added, the sample was mixed and incubated for 20 minutes at room temperature before adding 5 μl of acceptor beads in stop buffer. The samples were incubated for 60 minutes at room temperature and the signal per well was read on AlphaQuest reader.

[5] = molecular target: T5, Ret (Homo sapiens, UniProt P07949); experiment: AlphaScreen kinase assay, Ret; details: read-out: IC50, activity toward kinase Ret
T5 construct: P1378.pET-SF BI-PTP RET H661-R1012 HIS; made in house
T5 sequence (P07949 with tags, fused parts or gaps): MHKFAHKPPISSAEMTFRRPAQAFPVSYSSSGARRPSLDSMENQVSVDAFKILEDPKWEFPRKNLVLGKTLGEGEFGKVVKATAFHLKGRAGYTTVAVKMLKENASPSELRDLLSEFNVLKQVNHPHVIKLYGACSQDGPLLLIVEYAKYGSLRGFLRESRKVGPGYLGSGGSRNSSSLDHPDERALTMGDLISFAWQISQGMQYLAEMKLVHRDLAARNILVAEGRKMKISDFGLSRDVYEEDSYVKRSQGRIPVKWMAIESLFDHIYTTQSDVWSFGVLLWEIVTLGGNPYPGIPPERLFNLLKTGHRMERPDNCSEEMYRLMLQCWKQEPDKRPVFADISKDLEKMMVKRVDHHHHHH

[6] = molecular target: T6, Flt1 (Homo sapiens, UniProt P17948); experiment: AlphaScreen kinase assay, Flt1; details: read-out: IC50, activity toward kinase Flt1
T6 construct: P1826.pETN6 BI-PTP FLT1 M799-D1165-X WT; His6 (N); made in house; host or cells: E. coli (PTP1B co-expressed)
T6 sequence (P17948 with tags, fused parts or gaps): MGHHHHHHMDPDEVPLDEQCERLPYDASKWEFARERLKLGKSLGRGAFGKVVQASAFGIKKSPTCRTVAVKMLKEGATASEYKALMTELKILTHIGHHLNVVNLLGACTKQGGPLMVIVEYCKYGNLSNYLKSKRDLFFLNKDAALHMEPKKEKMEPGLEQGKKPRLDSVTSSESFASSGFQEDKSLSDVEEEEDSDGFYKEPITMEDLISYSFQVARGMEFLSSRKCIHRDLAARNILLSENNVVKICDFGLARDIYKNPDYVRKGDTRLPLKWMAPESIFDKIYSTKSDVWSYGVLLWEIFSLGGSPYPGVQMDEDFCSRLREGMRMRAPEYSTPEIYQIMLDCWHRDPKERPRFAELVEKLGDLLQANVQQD

[7] = molecular target: T7, FGFR1 (Homo sapiens, UniProt P11362, C488A/C584S); experiment: AlphaScreen kinase assay, FGFR1; details: read-out: IC50, activity toward kinase FGFR
T7 construct: P1351.pET N6 BI-PTP FGFR A458-E765-X C488A, C584S; made in house; host or cells: E. coli (PTP1B co-expressed)
T7 sequence (P11362 458-765 C488A/C584S): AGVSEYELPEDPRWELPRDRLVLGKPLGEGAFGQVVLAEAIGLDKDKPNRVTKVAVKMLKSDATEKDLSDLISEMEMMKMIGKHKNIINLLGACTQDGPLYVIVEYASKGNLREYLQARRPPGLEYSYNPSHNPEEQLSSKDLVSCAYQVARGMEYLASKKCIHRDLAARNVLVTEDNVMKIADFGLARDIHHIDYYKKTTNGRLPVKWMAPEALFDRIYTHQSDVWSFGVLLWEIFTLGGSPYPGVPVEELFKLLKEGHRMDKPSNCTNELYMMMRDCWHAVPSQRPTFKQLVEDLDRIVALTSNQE

[8] = molecular target: T8, B-Raf V600E (Homo sapiens, UniProt P15056, V600E); experiment: AlphaScreen kinase assay, B-Raf V600E; details: read-out: IC50, activity toward kinase B-Raf V600E
T8 construct: P4254. pFastBacBD-CDC37 BRAF D437-K722-X, V600E; His6 with pFastBac HT leader (TEV site) (N); made in house; host or cells: Sf9 (baculovirus; chaperone CDC37 co-expressed)
T8 sequence (P15056 with tags, fused parts or gaps V600E): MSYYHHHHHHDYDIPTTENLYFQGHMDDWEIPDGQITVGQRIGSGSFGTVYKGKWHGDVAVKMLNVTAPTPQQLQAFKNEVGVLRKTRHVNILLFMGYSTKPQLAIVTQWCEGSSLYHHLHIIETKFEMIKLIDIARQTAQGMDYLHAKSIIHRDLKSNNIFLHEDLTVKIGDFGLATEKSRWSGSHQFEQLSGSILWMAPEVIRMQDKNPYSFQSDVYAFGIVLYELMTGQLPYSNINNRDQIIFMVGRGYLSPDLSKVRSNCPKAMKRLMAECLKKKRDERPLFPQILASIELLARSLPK

[9] = molecular target: T9, Jnk1 (Homo sapiens, UniProt P45983); experiment: AlphaScreen kinase assay, Jnk1; details: read-out: IC50, activity toward kinase Jnk1
T9 construct: purchased Upstate Biotechnology

[10] = molecular target: T10, Fak (Homo sapiens, UniProt Q05397); experiment: AlphaScreen kinase assay, Fak; details: read-out: IC50, activity toward kinase Fak
T10 construct: P1358.pFastBacHtb FAK S411-Q686-X; His6 with pFastBacHTb leader (TEV site) (N); made in house; host or cells: Sf9 (baculovirus)

[11] = molecular target: T11, Src (Homo sapiens, UniProt P12931); experiment: AlphaScreen kinase assay, Src; details: read-out: IC50, activity toward kinase Src
T11 construct: P1144. pET-N6 BI-PTP SRC V86-L536-X; made in house
T11 sequence (P12931 with tags, fused parts or gaps): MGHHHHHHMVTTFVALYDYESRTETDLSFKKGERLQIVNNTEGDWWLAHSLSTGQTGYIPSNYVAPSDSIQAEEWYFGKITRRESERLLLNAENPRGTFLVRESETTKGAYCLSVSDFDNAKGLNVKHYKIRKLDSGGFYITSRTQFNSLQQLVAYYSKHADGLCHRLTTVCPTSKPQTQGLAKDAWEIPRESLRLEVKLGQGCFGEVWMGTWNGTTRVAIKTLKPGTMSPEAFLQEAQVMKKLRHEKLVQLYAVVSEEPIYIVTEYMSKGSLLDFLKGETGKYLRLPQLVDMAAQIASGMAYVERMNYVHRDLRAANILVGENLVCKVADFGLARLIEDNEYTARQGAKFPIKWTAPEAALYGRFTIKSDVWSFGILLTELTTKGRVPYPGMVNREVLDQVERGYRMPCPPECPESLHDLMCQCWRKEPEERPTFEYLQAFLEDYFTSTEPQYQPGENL

[12] = molecular target: T12, Fms (Homo sapiens, UniProt P07333); experiment: AlphaScreen kinase assay, Fms; details: read-out: IC50, activity toward kinase Fms
T12 construct: purchased Upstate Biotechnology
T12 sequence (P07333 20-972): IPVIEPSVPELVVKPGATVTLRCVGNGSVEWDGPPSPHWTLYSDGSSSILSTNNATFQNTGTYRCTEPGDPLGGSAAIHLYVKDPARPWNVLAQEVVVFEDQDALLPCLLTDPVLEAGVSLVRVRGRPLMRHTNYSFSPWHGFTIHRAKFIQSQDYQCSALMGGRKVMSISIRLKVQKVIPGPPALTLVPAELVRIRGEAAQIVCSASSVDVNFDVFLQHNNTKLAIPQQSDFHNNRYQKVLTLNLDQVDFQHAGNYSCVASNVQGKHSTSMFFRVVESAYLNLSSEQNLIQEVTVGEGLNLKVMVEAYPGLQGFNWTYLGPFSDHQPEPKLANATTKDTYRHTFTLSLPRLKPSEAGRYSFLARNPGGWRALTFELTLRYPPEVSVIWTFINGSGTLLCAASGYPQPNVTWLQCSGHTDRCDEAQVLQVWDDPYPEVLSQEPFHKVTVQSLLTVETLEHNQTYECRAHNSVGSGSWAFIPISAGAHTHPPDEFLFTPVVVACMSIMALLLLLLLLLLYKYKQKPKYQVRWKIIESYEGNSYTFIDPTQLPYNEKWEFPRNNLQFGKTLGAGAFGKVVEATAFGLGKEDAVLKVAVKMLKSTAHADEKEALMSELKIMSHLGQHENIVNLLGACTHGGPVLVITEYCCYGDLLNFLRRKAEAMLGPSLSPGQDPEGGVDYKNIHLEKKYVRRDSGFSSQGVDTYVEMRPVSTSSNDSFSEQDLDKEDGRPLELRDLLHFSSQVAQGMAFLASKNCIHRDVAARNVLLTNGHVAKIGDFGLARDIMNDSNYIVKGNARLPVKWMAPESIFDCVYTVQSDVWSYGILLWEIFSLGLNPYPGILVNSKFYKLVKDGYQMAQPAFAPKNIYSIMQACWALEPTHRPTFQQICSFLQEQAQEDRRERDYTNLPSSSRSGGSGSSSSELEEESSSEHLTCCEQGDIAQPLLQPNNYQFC

[13] = molecular target: T13, Stk6 (Homo sapiens, UniProt O14965); experiment: Z'-Lyte FRET kinase assay (Invitrogen), Stk6; details: read-out: IC50, activity toward kinase Stk6
T13 construct: purchased Invitrogen (Carlsbad, Calif.), screening service
T13 sequence (O14965 1-403): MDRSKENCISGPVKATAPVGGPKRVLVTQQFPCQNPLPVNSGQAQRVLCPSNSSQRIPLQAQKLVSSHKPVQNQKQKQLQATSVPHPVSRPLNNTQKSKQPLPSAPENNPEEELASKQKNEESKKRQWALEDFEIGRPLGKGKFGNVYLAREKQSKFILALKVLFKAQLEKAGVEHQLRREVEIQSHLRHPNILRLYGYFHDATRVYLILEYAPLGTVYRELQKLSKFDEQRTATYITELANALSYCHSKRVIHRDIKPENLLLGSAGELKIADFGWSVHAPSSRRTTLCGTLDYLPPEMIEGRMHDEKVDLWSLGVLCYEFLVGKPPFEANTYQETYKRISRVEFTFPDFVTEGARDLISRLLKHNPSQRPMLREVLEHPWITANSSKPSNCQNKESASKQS

[14] = molecular target: T14, Yes (Homo sapiens, UniProt P07947); experiment: Z'-Lyte FRET kinase assay (Invitrogen), Yes; details: read-out: IC50, activity toward kinase Yes
T14 construct: purchased Invitrogen (Carlsbad, Calif.), screening service
In short: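 Read-out is the coumarin-to-fluorescein emission ratio, which rises when unphosphorylated peptide is cleaved by the development protease. Reactions contain serially diluted compound, 2 μM peptide and 10 μM ATP and run for 1 h at room temperature before 1 h development.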

[15] = molecular target: T15, Btk (Homo sapiens, UniProt Q06187); experiment: Z'-Lyte FRET kinase assay (Invitrogen), Btk; details: read-out: IC50, activity toward kinase Btk
T15 construct: purchased Invitrogen (assay run by Invitrogen)
T15 sequence (Q06187 whole entry): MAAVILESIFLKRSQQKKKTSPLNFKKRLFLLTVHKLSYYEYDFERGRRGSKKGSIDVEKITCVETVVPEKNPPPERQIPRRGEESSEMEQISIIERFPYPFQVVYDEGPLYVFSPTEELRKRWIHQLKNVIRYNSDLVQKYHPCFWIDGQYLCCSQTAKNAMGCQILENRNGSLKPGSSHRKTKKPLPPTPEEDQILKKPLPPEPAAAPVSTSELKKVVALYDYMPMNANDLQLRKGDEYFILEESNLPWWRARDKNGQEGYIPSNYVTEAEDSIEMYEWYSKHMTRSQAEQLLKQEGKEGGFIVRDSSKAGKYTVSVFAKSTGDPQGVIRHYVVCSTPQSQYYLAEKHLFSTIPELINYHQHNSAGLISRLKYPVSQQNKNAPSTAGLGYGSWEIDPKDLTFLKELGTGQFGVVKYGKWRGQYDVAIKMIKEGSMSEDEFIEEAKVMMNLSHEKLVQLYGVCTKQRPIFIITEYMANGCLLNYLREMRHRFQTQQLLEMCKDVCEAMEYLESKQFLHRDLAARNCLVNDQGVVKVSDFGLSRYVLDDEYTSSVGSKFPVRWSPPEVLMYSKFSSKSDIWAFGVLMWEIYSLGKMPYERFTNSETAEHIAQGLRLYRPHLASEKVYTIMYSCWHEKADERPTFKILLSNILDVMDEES

[16] = molecular target: T16, B-Raf (Homo sapiens, UniProt P15056); experiment: AlphaScreen kinase assay, B-Raf; details: read-out: IC50, activity toward kinase B-Raf
T16 construct: purchased Upstate Biotechnology

[17] = molecular target: T17, c-Raf-1 (Homo sapiens, UniProt P04049); experiment: AlphaScreen kinase assay, c-Raf-1; details: read-out: IC50, activity toward kinase c-Raf-1
T17 construct: purchased Upstate Biotechnology

[18] = molecular target: T18, Jnk2 (Homo sapiens, UniProt P45984); experiment: AlphaScreen kinase assay, Jnk2; details: read-out: IC50, activity toward kinase Jnk2
T18 construct: purchased Roche Protein Expression Group (Indianapolis, IN)
In short: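 Uses phospho-specific antibody on acceptor beads plus streptavidin donor beads capturing biotinylated peptide substrate; singlet oxygen from donor excites nearby acceptor. Inhibitors tested in 8-point, 1:3 titrations starting from 20 mM DMSO solutions.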

Measured: IC50

T1 sequence (P10721 with tags, fused parts or gaps): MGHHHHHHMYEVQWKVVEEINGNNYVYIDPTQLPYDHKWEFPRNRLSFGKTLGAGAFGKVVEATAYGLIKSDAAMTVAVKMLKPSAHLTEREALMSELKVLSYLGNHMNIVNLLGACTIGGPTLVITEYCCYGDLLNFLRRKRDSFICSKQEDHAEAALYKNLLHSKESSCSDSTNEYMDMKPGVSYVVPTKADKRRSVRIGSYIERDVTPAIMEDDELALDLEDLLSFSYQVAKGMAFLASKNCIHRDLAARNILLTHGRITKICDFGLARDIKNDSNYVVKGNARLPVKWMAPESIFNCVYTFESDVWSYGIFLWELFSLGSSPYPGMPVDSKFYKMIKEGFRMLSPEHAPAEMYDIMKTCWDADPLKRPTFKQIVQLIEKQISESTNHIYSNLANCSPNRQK

COc1cccc(C(=O)c2c[nH]c3ncc(-c4cccc(C(N)=O)c4)cc23)c1 [Compound P-0190]
≤ 10 µM: [1] | [2] | [3] | [4] | [5]

CC(=O)Nc1cccc(-c2cnc3[nH]cc(C(=O)c4cc(C)on4)c3c2)c1 [Compound P-0632]
≤ 10 µM: [1] | [2] | [6] | [3] | [7] | [4] | [5]

CS(=O)(=O)Nc1cccc(-c2cnc3[nH]cc(C(=O)c4ccc(Cl)cc4)c3c2)c1 [Compound P-0813]
≤ 10 µM: [1] | [2] | [3] | [5]

O=C(c1ccccc1)c1c[nH]c2nccc(-c3cc(F)cc(F)c3)c12 [Compound P-0452]
≤ 10 µM: [3] | [7] | [5]

CC(=O)Nc1cccc(-c2cnc3[nH]cc(C(=O)c4ccccc4F)c3c2)c1 [Compound P-0668]
not listed: [12] | [13] | [14] | [15] | [16] | [17] | [18]
≤ 10 µM: all other assays above

COc1cccc(C(=O)c2c[nH]c3ncc(-c4ccsc4)cc23)c1 [Compound P-0211]
≤ 10 µM: [1] | [12] | [8] | [6] | [3] | [7] | [4] | [5] | [10]

COc1cccc(C(=O)c2c[nH]c3ncc(-c4cccs4)cc23)c1F [Compound P-0206]
≤ 10 µM: [1] | [13] | [2] | [6] | [3] | [7] | [5]

COc1ccc(C(=O)c2c[nH]c3ncc(-c4cccs4)cc23)cc1 [Compound P-0771]
≤ 10 µM: [1] | [12] | [8] | [2] | [6] | [3] | [7] | [5] | [11]

Nc1cccc(-c2cnc3[nH]cc(C(=O)c4cccc(Cl)c4Cl)c3c2)c1 [Compound P-0679]
≤ 10 µM: [1] | [8] | [2] | [6] | [3] | [7] | [5]

O=S(=O)(c1ccccc1)c1c[nH]c2ncccc12 [Compound P-0544]
≤ 10 µM: [3]

O=C(c1ccccc1F)c1c[nH]c2nccc(-c3cc(F)cc(F)c3)c12 [Compound P-0097]
≤ 10 µM: [1] | [14] | [8] | [2] | [3] | [7] | [5] | [15]

Cc1cc(C(=O)c2c[nH]c3ncc(-c4cccc(C(N)=O)c4)cc23)nn1C [Compound P-0737]
≤ 10 µM: [1] | [2] | [6] | [3] | [7] | [5]

COc1cccc(Cc2c[nH]c3ncc(-c4cc5ccccc5[nH]4)cc23)c1 [Compound P-0335]
≤ 10 µM: [3] | [7]

COc1cccc(C(=O)c2c[nH]c3ncc(Br)cc23)c1F [Compound P-0265, (5-bromo-1H-pyrrolo[2,3-b]pyridin-3-yl)-(2-fluoro-3-methoxy-phenyl)-methanone]
≤ 10 µM: [1] | [8] | [16] | [17] | [3] | [7] | [5]

O=C(c1ccc(Cl)cc1)c1c[nH]c2ncc(-c3cccnc3)cc12 [Compound P-0418]
≤ 10 µM: [1] | [12] | [8] | [2] | [17] | [3] | [7] | [5] | [15]

COc1cccc(C(=O)c2c[nH]c3ncc(-c4cccs4)cc23)c1 [Compound P-0204]
≤ 10 µM: [1] | [18] | [9] | [2] | [3] | [7] | [4] | [5]

O=C(c1ccc(F)cc1F)c1c[nH]c2nccc(-c3cc(F)cc(F)c3)c12 [Compound P-0352]
≤ 10 µM: [1] | [8] | [3] | [5]

COc1ccc(C(=O)c2c[nH]c3ncc(Br)cc23)cc1 [Compound P-0617]
≤ 10 µM: [1] | [3]
